In PubChem BioAssay (NCI):
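Dose response: 5 concentrations. Exposure: 48 h. Format: 96-well plates. Endpoint: linear interpolation; highest concentration if not reached. Abbreviation: GI50, concentration required for 50% inhibition of growth. Definition used: TGI = concentration required for complete inhibition of growth.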

What was measured:
Test in all cases: growth of human tumour cells (NCI), 48 h
[1] = tested on: SK-OV-3 ovarian
[2] = tested on: IGROV1 ovarian
[3] = tested on: CAKI-1 renal
[4] = tested on: SN12C renal
[5] = tested on: A549 NSCLC
[6] = tested on: SR leukemia
[7] = tested on: MOLT-4 leukemia
[8] = tested on: HS 578T breast
[9] = tested on: PC-3 prostate
[10] = tested on: LOX IMVI melanoma
[11] = tested on: SNB-19 CNS
[12] = tested on: SF-295 CNS
[13] = tested on: COLO 205 colon
[14] = tested on: TK-10 renal
[15] = tested on: SK-MEL-28 melanoma
[16] = tested on: HCC-2998 colon
[17] = tested on: NCI-H226 lung
[18] = tested on: HL-60(TB) leukemia
[19] = tested on: OVCAR-8 ovarian
[20] = tested on: SK-MEL-2 melanoma
[21] = tested on: OVCAR-4 ovarian
[22] = tested on: U251 CNS
[23] = tested on: MALME-3M melanoma
[24] = tested on: 786-0 renal
[25] = tested on: T-47D breast
[26] = tested on: HCT-116 colon
[27] = tested on: NCI-H460 lung
[28] = tested on: NCI-H23 lung
[29] = tested on: UACC-257 melanoma
[30] = tested on: SF-539 CNS
[31] = tested on: ACHN renal
[32] = tested on: SF-268 CNS
[33] = tested on: CCRF-CEM leukemia
[34] = tested on: M14 melanoma
[35] = tested on: RPMI-8226 leukemia
[36] = tested on: HT29 colon
[37] = tested on: HOP-62 NSCLC
[38] = tested on: K-562 leukemia
[39] = tested on: OVCAR-5 ovarian
[40] = tested on: RXF 393 renal
[41] = tested on: MDA-MB-435
[42] = tested on: KM12 colon
[43] = tested on: DU-145 prostate
[44] = tested on: NCI/ADR-RES ovarian
[45] = tested on: MDA-MB-231 breast
[46] = tested on: SK-MEL-5 melanoma
[47] = tested on: BT-549 breast
[48] = tested on: SW-620 colon
[49] = tested on: NCI-H522 lung
[50] = tested on: MCF7 breast
[51] = tested on: A498 renal
[52] = tested on: OVCAR-3 ovarian
[53] = tested on: SNB-75 CNS
[54] = tested on: UACC-62 melanoma
[55] = tested on: HCT-15 colon
[56] = tested on: UO-31 renal
[57] = tested on: EKVX NSCLC
[58] = tested on: HOP-92 NSCLC

N/C(=N\O)c1cn(C2OC(CO)C(O)C2O)c2ncnc(N)c12 (centres undefined) gave a GI50 [1] of 88.4 nM, a TGI [1] of 1760 nM and a GI50 [2] of 263 nM. It also gave a TGI [2] of 20700 nM, a GI50 [3] of 132 nM and a TGI [3] of 13100 nM. It also gave a GI50 [4] of 152 nM, a TGI [4] greater than 36100 nM and a GI50 [5] of 126 nM. The TGI [5] was 20100 nM, the GI50 [6] was 87.6 nM and the TGI [6] was 14800 nM. It also gave a GI50 [7] of 277 nM, a TGI [7] of 1640 nM and a GI50 [8] of 263 nM. It also gave a TGI [8] of 3620 nM, a GI50 [9] of 343 nM and a TGI [9] of 5790 nM. For the same compound, the GI50 [10] was 153 nM, the TGI [10] was 501 nM and the GI50 [11] was 301 nM. For the same compound, the TGI [11] was greater than 100000 nM, the GI50 [12] was 275 nM and the TGI [12] was 7300 nM. For the same compound, the GI50 [13] was 131 nM, the TGI [13] was 601 nM and the GI50 [14] was 204 nM. For the same compound, the TGI [14] was 7490 nM, the GI50 [15] was 127 nM and the TGI [15] was 382 nM. The GI50 [16] was 212 nM, the TGI [16] was 1430 nM and the GI50 [17] was 446 nM. For the same compound, the TGI [17] was 49600 nM, the GI50 [18] was 117 nM and the TGI [18] was 858 nM. The GI50 [19] was 186 nM, the TGI [19] was 2590 nM and the GI50 [20] was 128 nM. It also gave a TGI [20] of 400 nM, a GI50 [21] of 177 nM and a TGI [21] of 4050 nM. It also gave a GI50 [22] of 185 nM, a TGI [22] greater than 71700 nM and a GI50 [23] of 57.8 nM. The TGI [23] was 243 nM, the GI50 [24] was 374 nM and the TGI [24] was greater than 100000 nM. For the same compound, the GI50 [25] was 108 nM, the GI50 [26] was 63.3 nM and the TGI [26] was greater than 100000 nM. For the same compound, the GI50 [27] was 138 nM, the TGI [27] was 987 nM and the GI50 [28] was 229 nM. The TGI [28] was 5180 nM, the GI50 [29] was 177 nM and the TGI [29] was 705 nM. For the same compound, the GI50 [30] was 255 nM, the TGI [30] was 3510 nM and the GI50 [31] was 76.4 nM. It also gave a TGI [31] greater than 35900 nM, a GI50 [32] of 105 nM and a TGI [32] greater than 21500 nM. For the same compound, the GI50 [33] was 303 nM, the TGI [33] was greater than 38600 nM and the GI50 [34] was 108 nM. It also gave a TGI [34] of 776 nM, a GI50 [35] of 162 nM and a TGI [35] of 625 nM. It also gave a GI50 [36] of 226 nM, a TGI [36] of 18600 nM and a GI50 [37] of 468 nM. For the same compound, the TGI [37] was greater than 68700 nM, the GI50 [38] was 281 nM and the TGI [38] was greater than 100000 nM. The GI50 [39] was 507 nM, the TGI [39] was greater than 40500 nM and the GI50 [40] was 169 nM. The TGI [40] was 722 nM, the GI50 [41] was 75.8 nM and the TGI [41] was 263 nM. The GI50 [42] was 188 nM, the GI50 [43] was 190 nM and the GI50 [44] was 262 nM. It also gave a GI50 [45] of 197 nM, a TGI [45] of 18900 nM and a GI50 [46] of 183 nM. The TGI [46] was 356 nM, the GI50 [47] was 311 nM and the TGI [47] was 17700 nM. For the same compound, the GI50 [48] was 88.3 nM, the GI50 [49] was 157 nM and the TGI [49] was 401 nM. For the same compound, the GI50 [50] was 56 nM, the TGI [50] was 1070 nM and the GI50 [51] was 140 nM. It also gave a TGI [51] of 555 nM, a GI50 [52] of 408 nM and a TGI [52] of 9760 nM. For the same compound, the GI50 [53] was 180 nM, the TGI [53] was 6170 nM and the GI50 [54] was 141 nM. It also gave a TGI [54] of 366 nM, a GI50 [55] of 133 nM and a TGI [55] greater than 47800 nM. For the same compound, the GI50 [56] was 229 nM and the TGI [56] was 13400 nM.

CCOC(=O)c1cn2c(n1)sc1cc([N+](=O)[O-])ccc12 showed a TGI [1] greater than 100000 nM, a TGI [2] greater than 100000 nM and a TGI [3] greater than 100000 nM. The TGI [4] was greater than 100000 nM, the TGI [5] was greater than 100000 nM and the TGI [6] was greater than 100000 nM. For the same compound, the TGI [7] was greater than 100000 nM, the TGI [8] was greater than 100000 nM and the TGI [9] was greater than 100000 nM. For the same compound, the TGI [10] was greater than 100000 nM, the TGI [11] was greater than 100000 nM and the TGI [12] was greater than 100000 nM. It also gave a TGI [13] greater than 100000 nM, a TGI [14] greater than 100000 nM and a TGI [15] greater than 100000 nM. For the same compound, the TGI [16] was greater than 100000 nM, the TGI [17] was greater than 100000 nM and the TGI [19] was greater than 100000 nM. For the same compound, the TGI [57] was greater than 100000 nM, the TGI [20] was greater than 100000 nM and the TGI [21] was greater than 100000 nM. It also gave a TGI [22] greater than 100000 nM, a TGI [23] greater than 100000 nM and a TGI [24] greater than 100000 nM. For the same compound, the TGI [25] was greater than 100000 nM, the TGI [26] was greater than 100000 nM and the TGI [27] was greater than 100000 nM. It also gave a TGI [28] greater than 100000 nM, a TGI [29] greater than 100000 nM and a TGI [30] greater than 100000 nM. It also gave a TGI [31] greater than 100000 nM, a TGI [32] greater than 100000 nM and a TGI [33] greater than 100000 nM. It also gave a TGI [34] greater than 100000 nM, a TGI [58] greater than 100000 nM and a TGI [35] greater than 100000 nM. For the same compound, the TGI [36] was greater than 100000 nM, the TGI [37] was greater than 100000 nM and the TGI [38] was greater than 100000 nM. For the same compound, the TGI [39] was greater than 100000 nM, the TGI [40] was greater than 100000 nM and the TGI [41] was greater than 100000 nM. It also gave a TGI [42] greater than 100000 nM, a TGI [43] greater than 100000 nM and a TGI [44] greater than 100000 nM. For the same compound, the TGI [45] was greater than 100000 nM, the TGI [46] was greater than 100000 nM and the TGI [47] was greater than 100000 nM. It also gave a TGI [48] greater than 100000 nM, a TGI [49] greater than 100000 nM and a TGI [50] greater than 100000 nM. It also gave a TGI [51] greater than 100000 nM, a TGI [52] greater than 100000 nM and a TGI [53] greater than 100000 nM. The TGI [54] was greater than 100000 nM, the TGI [55] was greater than 100000 nM and the TGI [56] was greater than 100000 nM.
